Source: paper PMC4395004 (Pharmaceutical research, 2013)

Assay: PK study of P-S after topical
Assay type: in vivo, rat
Settings: for Tmax: LEW/crlBR, rat, po, 50 mg/kg
[1] = oral gavage P-S 50 mg/kg single dose, blood
[2] = oral gavage P-S 50 mg/kg single dose, muscle
[3] = topical PSH, single dose P-S 50 mg/kg on both hind legs, muscle
[4] = topical PSH, single dose P-S 50 mg/kg, blood
[5] = topical PSH, single dose P-S 50 mg/kg, muscle

| Tmax (blood) | Tmax (muscle) | AUC0–24h, blood [1] | Cmax, blood [1] | AUC0–24h, muscle [2] | Cmax, muscle [2] | Cmax, muscle [3] | AUC0–24h, blood [4] | Cmax, blood [4] | AUC0–24h, muscle [5] | muscle Cmax (topical PSH, muscle) | Tmax, blood [1] | Tmax, muscle [2] | Tmax, blood [4] | Tmax, muscle [5] | Compound |
| --- | --- | --- | --- | --- | --- | --- | --- | --- | --- | --- | --- | --- | --- | --- | --- |
| 8 h | 8 h | 156 (nmole/g)*h | 13 nmol/g | 158 (nmole/g)*h | 13 nmol/g | 2 nmol/g | 122 (nmole/g)*h | 10 nmol/g | 18 (nmole/g)*h | ≤ 31 nmole/g tissue | – | – | – | – | CSc1ccc(/C=C2/C(C)=C(CC(=O)O)c3cc(F)ccc32)cc1 [S.sulfide, sulindac sulfide] |
| – | – | – | 52 nmol/g | 764 (nmole/g)*h | 40 nmol/g | 12 nmol/g | 400 (nmole/g)*h | 23 nmol/g | 170 (nmole/g)*h | ≤ 31 nmole/g tissue | 8 h | 8 h | 8 h | 24 h | CC1=C(CC(=O)O)c2cc(F)ccc2/C1=C\c1ccc(S(C)(=O)=O)cc1 [S.sulfone, sulindac sulfone] |
| 2 h | 8 h | 405 (nmole/g)*h | 33 nmol/g | 296 (nmole/g)*h | 20 nmol/g | 31 nmol/g | 245 (nmole/g)*h | 18 nmol/g | 399 (nmole/g)*h | ≤ 31 nmole/g tissue | – | – | – | – | CC1=C(CC(=O)O)c2cc(F)ccc2/C1=C\c1ccc([S+](C)[O-])cc1 (stereo not shown) [Sulindac, sulindac, reference compound] |
